Results published in patent US4663309A, “Novel peptide hormones with calcitonin-like activity” (University Patents, Inc., priority 1985, dated 1987).
Bridge positions count the residues as written; N and C are the ends. Peptide text beside a SMILES is read from it.

Experiments:
[1] = Circular dichroism spectra, alpha-helical structure in solution; assay type: physicochemical
Excerpt: The circular dichroism (CD) spectra of MCT-I and salmon calcitonin (designated "SCT-I", available from Armour Pharmaceuticals, Kankakee, IL and used without further purification) from 250 nm to 205 nm show minima at 222 nm and 208 nm characteristic of α-helical structure. For MCT-I, the mean residue molar ellipticity at 222 nm, [θ]222, was -7,800 deg.cm^2 /dmol (10^-4 M peptide, 0.02M sodium phosphate buffer, 0.16M KCl, pH 7.4), from which the α-helicity was estimated to be 30% (assuming no contribution to CD by β-sheet structure) according to the method of Morrisett, J. D., J. S. K. Davis, H. J. Pownall, and A. M. Gotto, Biochemistry 12:1290 (1973). […] Similarly, the value of [θ]222 for solutions of SCT-I over the same concentration range and under the same conditions also remains constant at -4,600 deg.cm^2 /dmol, leading to an estimate of 20% α-helix for this peptide. In 50% trifluoroethanol, a structure promoting solvent, both MCT-I and SCT-I were estimated to be 50% α-helical at a concentration of 5×10^-5 M, as was found by Brewer, H. D. and H. Edelhoch, J. Biol. Chem. 245:2402 (1970) for porcine calcitonin (PCT) in 50% 2-chloroethanol.
The circular dichroic spectra of MCT-II solutions buffered with 0.02M sodium phosphate at pH 7.4 and containing 0.16M KCl were measured from 250 nm to 200 nm using a Carey 60™ spectropolarimeter (Varian Instruments, Palo Alto. CA). The spectrometer cells used were washed with concentrated nitric acid, rinsed thoroughly with deionized water, then treated with a 1% aqueous polyethylene glycol (Mr 15K-20K) solution for 1 hr and finally rinsed with water before using. The molar ellipticities obtained from the circular dichroic spectra of MCT-II from 240 nm to 204 nm were fitted by a linear combination of three different basis functions derived from the spectra described by Greenfield, N. and G. D. Fasman, Biochem. 8:4108(1969) for α-helix, β-sheet, and random coil structure. […] Since there was no significant contribution to the spectrum from β-sheet structure, we used the mean residue molar ellipticity at 222 nm, [ θ]222, to estimate changes in α-helical structure (Morrisett et al., supra). The results are given in FIG. 3; each data point represents the mean from two experiments. […] [θ]222 for the monomer was -5,200 deg.cm^2 /dmol (20% α-helix) and -10,475 deg.cm^2 /dmol (35% α-helix) for the trimer. […] This dissociation constant corresponds to a 4.5 kcal/mol of stabilization energy per monomer for trimerization. Under similar conditions and over the same concentration range [θ]222 for MCT-I and SCT-I remained constant at -7,800 deg.cm^2 /dmol and -4,600 deg.cm^2 /dmol, respectively.

[2] = Surface monolayer studies at the air-water interface; assay type: physicochemical; conditions: for Collapse pressure of the monolayer: air-water interface, 0.01M Tris.HCl pH 7.4, 0.1M NaCl
Procedure: For surface monolayer studies, a subphase of 0.01M Tris.HCl, pH 7.4 with 0.1M NaCl was prepared with glass-distilled water. Surfactant contaminants were removed by bubbling air through the solution for 10 min, then aspirating the surface of the buffer. Insoluble monolayers were spread from a 2.8×10^-4 M solution of MCT-I in 0.1 mM HCl. The surface pressure π(dyn/cm) of the MCT-I monomolecular layer was measured as a function of area, A (cm^2), using a Lauda™ film balance (Brinkman Instruments, Norwalk, CT). At the air-water interface, MCT-I and SCT-I form insoluble monolayers when spread from concentrated solutions in 0.01M HCl. The force-area (π-A) curves between 5 and 12 dyn/cm are described by the equation π[A-A.infin. (1-κπ)]=nRT where κ is a constant reflecting the compressibility of the monolayer and A.infin. is the limiting molecular area extrapolated to zero surface pressure. The parameters calculated for the two peptides were very similar, κ=0.016 cm/dyn for MCT-I and 0.02 cm/dyn for SCT-I, while A.infin. =362 Å^2 for MCT-I and A.infin. =322 Å^2 for SCT I. However, the collapse pressure of 24 dyn/cm found for the monolayer of MCT-I was much higher than the value of 14 dyn/cm observed for SCT-I.
Surface monolayer studies were conducted as in Example 4. MCT-II forms stable monolayers at the air-water interface when spread from concentrated solutions in 0.01M HCl. The force-area curve (π-A) between 0 dyn/cm and 21 dyn/cm can be described by the equation π(A-A.infin. (1-κπ))=nRT where A.infin. is the limiting molecular area extrapolated to zero surface pressure and κ is a constant reflecting the compressibility of the monolayer. The parameters calculated using the entire π-A curve indicate that MCT-II forms a compact, relatively rigid structure at the air-water interface. A.infin. was 362±10 Å^2 compared with 434±7 Å^2 for MCT-I and 559±18 Å^2 for SCT-I. Monolayers of SCT-I, MCT-I, and MCT-II were successively less compressible with κ having values of 0.03 cm/dyn for SCT-I, 0.02 cm/dyn for MCT-I, and 0.01 cm/dyn for MCT-II. Collapse of the monolayer occurred at 22 dyn/cm which was slightly lower than the 24 dyn/cm observed for MCT-I and higher than for the SCT-I monolayer which collapses at 12 dyn/cm.

[3] = calculated using the entire π-A curve (Example 7)
[4] = π-A curve between 5 and 12 dyn/cm (Example 4)

α-helicity estimated from [θ]222 ([1]; 0.02M sodium phosphate, 0.16M KCl, pH 7.4) | Mean residue molar ellipticity at 222 nm, [θ]222 ([1]; 0.02M sodium phosphate, 0.16M KCl, pH 7.4, constant from 10^-7 M to 10^-4 M) | α-helicity in 50% trifluoroethanol ([1]; 5×10^-5 M peptide) | Collapse pressure of the monolayer [2] | A∞, limiting molecular area extrapolated to zero surface pressure [2, 3] | κ, compressibility constant of the monolayer [2, 3] | A∞, limiting molecular area extrapolated to zero surface pressure [2, 4] | κ, compressibility constant of the monolayer [2, 4] | Stabilization energy per monomer for trimerization [1] | α-helix of the monomer ([1]; monomer) | Dissociation constant (Kd) for the oligomer ([1]; monomer/trimer equilibrium) | [θ]222 for the monomer ([1]; monomer, 0.02M sodium phosphate pH 7.4, 0.16M KCl) | α-helix of the trimer ([1]; trimer) | [θ]222 for the trimer ([1]; trimer, 0.02M sodium phosphate pH 7.4, 0.16M KCl) | SMILES
30% | -7,800 deg.cm^2 /dmol | 50% | 24 dyn/cm | 434±7 Å^2 | 0.02 cm/dyn | 362 Å^2 | 0.016 cm/dyn | – | – | – | – | – | – | CC(C)C[C@@H]1NC(=O)[C@H](CC(N)=O)NC(=O)CNC(=O)[C@@H](N)CSSC[C@@H](C(=O)N[C@@H](CC(C)C)C(=O)N[C@@H](CC(C)C)C(=O)N[C@@H](CCC(N)=O)C(=O)N[C@@H](CCC(N)=O)C(=O)N[C@@H](Cc2c[nH]c3ccccc23)C(=O)N[C@@H](CCC(N)=O)C(=O)N[C@@H](CCCCN)C(=O)N[C@@H](CC(C)C)C(=O)N[C@@H](CC(C)C)C(=O)N[C@@H](CCC(N)=O)C(=O)N[C@@H](CCCCN)C(=O)N[C@@H](CC(C)C)C(=O)N[C@@H](CCCCN)C(=O)N[C@@H](CCC(N)=O)C(=O)N[C@@H](CC(C)C)C(=O)N2CCC[C@H]2C(=O)N[C@@H](CCCNC(=N)N)C(=O)N[C@H](C(=O)N[C@@H](CC(N)=O)C(=O)N[C@H](C(=O)NCC(=O)N[C@@H](CO)C(=O)NCC(=O)N[C@H](C(=O)N2CCC[C@H]2C(N)=O)[C@@H](C)O)[C@@H](C)O)[C@@H](C)O)NC(=O)[C@H]([C@@H](C)O)NC(=O)[C@H](CO)NC1=O [MCT-I] (H-CGNLSTCLLQQWQKLLQKLKQLPRTNTGSGTP-NH2; disulfide 1-7)
– | – | – | 22 dyn/cm | 362±10 Å^2 | 0.01 cm/dyn | – | – | 4.5 kcal/mol | 20% | 5.06×10^-11 M^2 | -5,200 deg.cm^2 /dmol | 35% | -10,475 deg.cm^2 /dmol | CC(C)C[C@H](NC(=O)[C@H](CCCCN)NC(=O)[C@H](CCC(N)=O)NC(=O)[C@H](CC(C)C)NC(=O)[C@H](CCC(N)=O)NC(=O)[C@H](CCC(N)=O)NC(=O)[C@H](CC(C)C)NC(=O)[C@H](CC(C)C)NC(=O)[C@@H]1CSSC[C@H](N)C(=O)N[C@@H](CO)C(=O)N[C@@H](CC(N)=O)C(=O)N[C@@H](CC(C)C)C(=O)N[C@@H](CO)C(=O)N[C@@H]([C@@H](C)O)C(=O)N1)C(=O)N[C@@H](CC(C)C)C(=O)N[C@@H](CCC(N)=O)C(=O)N[C@@H](CCCCN)C(=O)N[C@@H](CC(C)C)C(=O)N[C@@H](CCCCN)C(=O)N[C@@H](CCC(N)=O)C(=O)N[C@@H](Cc1ccc(O)cc1)C(=O)N1CCC[C@H]1C(=O)N[C@@H](CCCNC(=N)N)C(=O)N[C@H](C(=O)N[C@@H](CC(N)=O)C(=O)N[C@H](C(=O)NCC(=O)N[C@@H](CO)C(=O)NCC(=O)N[C@H](C(=O)N1CCC[C@H]1C(N)=O)[C@@H](C)O)[C@@H](C)O)[C@@H](C)O [MCT-II] (H-CSNLSTCLLQQLQKLLQKLKQYPRTNTGSGTP-NH2; disulfide 1-7; N-terminus assumed)
